According to patent EP4310093A1, “AMINO ACID DERIVATIVE, PREPARATION METHOD THEREFOR, AND PHARMACEUTICAL COMPOSITION FOR TREATING HEPATITIS, COMPRISING SAME” (priority 2021, dated 2022):

How the values were obtained:
HBV [1] = assay: Inhibition of intracellular HBV virus invasion, Southern blot analysis; assay type: cell-based; settings: for amount of HBeAg DNA detected compared to the negative control group (Mock): 20 µM, HepG2-NTCP cell line, HBV 3000 Geq/cell; for activity at 20 µM: Hepatitis B virus, read-out: relative replication rate of quantified HBeAg DNA to the negative control group (Mock), 20 µM, HepG2-NTCP cell line, HBV 3000 Geq/cell
Experimental: (§1) In order to evaluate the ability to inhibit intracellular HBV virus entry (invasion), Enzyme-linked immunosorbent assay (ELISA) analysis to measure HBeAg, which is associated with high infectivity as an antigen in the HBV virus core portion, and Southern blot analysis to measure DNA of HBV were performed.
(§2) Specifically, the HepG2-NTCP cell line was cultured on a 6-well plate, incubation was performed overnight, HBV inhibitors were treated at a concentration of 20 µM, and the positive control Myrcludex-B (MyrB) was treated at a concentration of 200 nM, followed by culture for 24 hours. After HBV infection into the cells to make HBV 3000 genome equivalent per ml/cell (Geq/cell), the cell culture medium was replaced (medium changing, MC) a day after the viral infection to remove the virus unattached to cell membranes. In order to measure an amount of virus that entered the cell, medium changing (MC) was performed once more 4 days after viral infection. 2 days after replacement, HBeAg ELISA analysis was performed using a supernatant, and Southern blot analysis was performed with cell pellets.
For the cell pellet obtained by the method of Experimental Example 4-1, Southern blot analysis for measurement of […] DNA was performed using Example 1 (LCA-Ile), Example 44 (LCA-Val), Example 52 (LCA-Tyr), Example 51 (LCA-Ser), Example 55 (LCA-Glu), Example 2 (UDCA-Ile), Example 3 (UDCA-Val), Example 25 (LCA-Val-Trp), Example 10 (DCA-Ile), Comparative Example 1 (LCA), and Comparative Example 2 (UDCA).
First, the cell pellets were pipetted with 100 µl of HEPES lysis buffer (10 mM HEPES, 100 mM NaCl, 1 mM EDTA, 1% NP-40), placed on ice for 20 minutes, and then centrifuged with a centrifuge under the conditions at 4°C and 13000 rpm. After transferring the supernatant only to the new microtube, 4.5 µl of nuclease buffer I (10 mM CaCl2, 12 mM MgCl2, DNase 10 units) was added to carry out a reaction at 37°C for 2 hours, and 40 µl of 26% PEG solution was added, followed by a reaction on ice for 1 hour. After centrifuging with the centrifuge at 4°C and 13000 rpm for 30 minutes, and the supernatant was removed cleanly. After releasing the pellets with 100 µl of nuclease buffer II (10 mM Tris, 8 mM CaCl2, 6mM MgCl2), 287.5 µl of 0.5% SDS buffer (25 mM Tris, 10 mM EDTA, 0.5% SDS, 100 mM NaCl) was added, and 12.5 µl of 20 mg/ml proteinase K was added, followed by a reaction at 37°C for 2 hours. 400 µl of phenol-chloroform-isoamyl alcohol was added, centrifugation was performed at room temperature at 13000 rpm after voltexing, the supernatant was transferred to a new tube, 40 µl of 3 M NaOAc was added, and 800 µl of 100% ethanol was added for inverting, followed by a reaction overnight at -20°C. After performing centrifugation at 4°C and 13000 rpm for 30 minutes, 800 µl of 70% ethanol was added and mixed to the pellet obtained by removing the supernatant, centrifugation was performed at 4°C and 13000 rpm for 10 minutes, and then the supernatant was discarded. The ethanol was dried for 5 minutes to leave only the HBV DNA pellets, and then the pellets were dissolved again in 15 µl of TE buffer (10 mM Tris, 1 mM EDTA). HBV DNA samples were loaded in 1% agarose gel, and electrophoresis was performed. It was then immersed in denature buffer (0.25 N NaOH, 1 M NaCl) for 30 minutes to denature dsDNA of HBV into ssDNA. The DNA in the gel was transferred to a Nylon membrane using a transfer buffer (0.4 M NaOH), the membrane was soaked with a 2X SSC buffer (sigma, cat# 85639) for neutralization, followed by drying in air. The membrane was immersed in a church buffer (10% BSA, 0.5 M EDTA, 1 M NaPi, 20% SDS), and the radioisotopes were hybridized using a Mega prime kit (GE healthcare, RPN1607). After washing three times with washing buffer (2X SSC, 0.1% SDS), measurement was performed using radioisotope measurement equipment, and a relative replication rate (%) to the negative control group (Mock) was calculated and shown.

HBV [2] = assay: Inhibition of intracellular HBV virus invasion, HBeAg ELISA analysis; assay type: cell-based; settings: 20 µM, HepG2-NTCP cell line, HBV 3000 Geq/cell, O.D. at 450 nm
Experimental: as §1, §2
HBeAg ELISA analysis was performed using an HBeAg ELISA kit (sanbio, Wantai HBeAg ELISA, cat#WB-2496) for the supernatant obtained by the method in Experimental Example 4-1.
First, a negative control group (Mock), positive control group (MyrB), and samples according to the present disclosure were loaded, by 50 µl each to be triplicate, onto a 96-well plate coated with capture Ab. In this case, Example 1 (LCA-ILE), Example 44 (LCA-Val), Example 52 (LCA-Tyr), Example 51 (LCA-Ser), Example 55 (LCA-Glu), Example 2 (UDCA-Ile), Example 3 (UDCA-Val), Example 25 (LCA-Val-Trp), Example 10 (DCA-Ile), Comparative Example 1 (LCA), and Comparative Example 2 (UDCA) were used as the sample.
The HRP-conjugated detection antibody was loaded into each well by 50 µl, followed by a reaction at 37°C for 30 minutes. Washing buffer (1X PBS, 0.5% Tween20) was added by 200 µl, and washing was performed 5 times. 50 µl of chromogen solution A and 50 µl of chromogen solution B were added to each well, and a reaction was carried out in the darkness at 37°C for 15 minutes. The stop solution was added to each well by 50 µl each to stop the reaction, and the amount of HBeAg was measured by measuring the absorbance (optical density, O.D.) level in the 450 nm wavelength band.

With CC[C@@H](C)[C@H](NC(=O)CC[C@@H](C)[C@H]1CC[C@H]2[C@@H]3[C@@H](O)C[C@@H]4C[C@H](O)CC[C@]4(C)[C@H]3CC[C@]12C)C(=O)O [Example 2, (2S,3R)-2-((R)-4-((3R,5S,7S,8R,9S,10S,13R,14S,17R)-3,7-dihydroxy-10,13-dimethyl-hexadecahydro-1H-cyclopenta[a]phenanthren-17-yl)pentanamido)-3-methylpentanoic acid] the “amount of HBeAg DNA detected compared to the negative control group (Mock)” value (HBV [1]) was “relatively less amount”, the activity at 20 µM (HBV [1]) was < 80% and the “HBeAg absorbance level compared with Comparative Example 1 (LCA) and Comparative Example 2 (UDCA)” value (HBV [2]) was “lower”. The “HBeAg absorbance level compared with the negative control group (Mock)” value (HBV [2]) was “relatively lower”.

In the case of CC(C)[C@H](NC(=O)CC[C@@H](C)[C@H]1CC[C@H]2[C@@H]3[C@@H](O)C[C@@H]4C[C@H](O)CC[C@]4(C)[C@H]3CC[C@]12C)C(=O)O [Example 3, (S)-2-((R)-4-((3R,5S,7S,8R,9S,10S,13R,14S,17R)-3,7-dihydroxy-10,13-dimethyl-hexadecahydro-1H-cyclopenta[a]phenanthren-17-yl)pentanamido)-3-methylbutanoic acid], the “amount of HBeAg DNA detected compared to the negative control group (Mock)” value (HBV [1]) is reported as “relatively less amount”, the activity at 20 µM (HBV [1]) is reported as < 80% and the “HBeAg absorbance level compared with Comparative Example 1 (LCA) and Comparative Example 2 (UDCA)” value (HBV [2]) is reported as “lower”. The “HBeAg absorbance level compared with the negative control group (Mock)” value (HBV [2]) was “relatively lower”.

CC[C@@H](C)[C@H](NC(=O)CC[C@@H](C)[C@H]1CC[C@H]2[C@@H]3CC[C@@H]4C[C@H](O)CC[C@]4(C)[C@H]3C[C@H](O)[C@]12C)C(=O)O [Example 10, (2S,3R)-2-((R)-4-((3R,5R,8R,9S,10S,12S,13R,14S,17R)-3,12-dihydroxy-10,13-dimethyl-hexadecahydro-1H-cyclopenta[a]phenanthren-17-yl)pentanamido)-3-methylpentanoic acid] was tested, and the “amount of HBeAg DNA detected compared to the negative control group (Mock)” value (HBV [1]) was “relatively less amount”, the activity at 20 µM (HBV [1]) was < 80% and the “HBeAg absorbance level compared with Comparative Example 1 (LCA) and Comparative Example 2 (UDCA)” value (HBV [2]) was “lower”. The “HBeAg absorbance level compared with the negative control group (Mock)” value (HBV [2]) was “relatively lower”.

CC(C)[C@H](NC(=O)CC[C@@H](C)[C@H]1CC[C@H]2[C@@H]3CC[C@@H]4C[C@H](O)CC[C@]4(C)[C@H]3CC[C@]12C)C(=O)N[C@@H](Cc1c[nH]c2ccccc12)C(=O)O [Example 25, (S)-2-((S)-2-((R)-4-((3R,5R,8R,9S,10S,13R,14S,17R)-3-hydroxy-10,13-dimethyl-hexadecahydro-1H-cyclopenta[a]phenanthren-17-yl)pentanamido)-3-methylbutanamido)-3-(1H-indol-3-yl)propanoic acid] was tested, and the “amount of HBeAg DNA detected compared to the negative control group (Mock)” value (HBV [1]) was “relatively less amount”.

For CC(C)[C@H](NC(=O)CC[C@@H](C)[C@H]1CC[C@H]2[C@@H]3CC[C@@H]4C[C@H](O)CC[C@]4(C)[C@H]3CC[C@]12C)C(=O)O [Example 44, (S)-2-((R)-4-((3R,5R,8R,9S,10S,13R,14S,17R)-3-hydroxy-10,13-dimethyl-hexadecahydro-1H-cyclopenta[a]phenanthren-17-yl)pentanamido)-3-methylbutanoic acid], the “amount of HBeAg DNA detected compared to the negative control group (Mock)” value (HBV [1]) was “relatively less amount”, the activity at 20 µM (HBV [1]) was < 80% and the “HBeAg absorbance level compared with Comparative Example 1 (LCA) and Comparative Example 2 (UDCA)” value (HBV [2]) was “lower”. For the same molecule, the “HBeAg absorbance level compared with the negative control group (Mock)” value (HBV [2]) was “relatively lower”.

C[C@H](CCC(=O)N[C@@H](CO)C(=O)O)[C@H]1CC[C@H]2[C@@H]3CC[C@@H]4C[C@H](O)CC[C@]4(C)[C@H]3CC[C@]12C [Example 51, (S)-3-hydroxy-2-((R)-4-((3R,5R,8R,9S,10S,13R,14S,17R)-3-hydroxy-10,13-dimethyl-hexadecahydro-1H-cyclopenta[a]phenanthren-17-yl)pentanamido)propanoic acid] was tested, and the “HBeAg absorbance level compared with the negative control group (Mock)” value (HBV [2]) was “relatively lower”.

In the case of C[C@H](CCC(=O)N[C@@H](Cc1ccc(O)cc1)C(=O)O)[C@H]1CC[C@H]2[C@@H]3CC[C@@H]4C[C@H](O)CC[C@]4(C)[C@H]3CC[C@]12C [Example 52, (S)-2-((R)-4-((3R,5R,8R,9S,10S,13R,14S,17R)-3-hydroxy-10,13-dimethyl-hexadecahydro-1H-cyclopenta[a]phenanthren-17-yl)pentanamido)-3-(4-hydroxyphenyl)propanoic acid], the “amount of HBeAg DNA detected compared to the negative control group (Mock)” value (HBV [1]) is reported as “relatively less amount” and the activity at 20 µM (HBV [1]) is reported as < 80%.

C[C@H](CCC(=O)N[C@@H](CCC(=O)O)C(=O)O)[C@H]1CC[C@H]2[C@@H]3CC[C@@H]4C[C@H](O)CC[C@]4(C)[C@H]3CC[C@]12C [Example 55, (S)-2-((R)-4-((3R,5R,8R,9S,10S,13R,14S,17R)-3-hydroxy-10,13-dimethyl-hexadecahydro-1H-cyclopenta[a]phenanthren-17-yl)pentanamido)pentanedioic acid] was tested, and the “amount of HBeAg DNA detected compared to the negative control group (Mock)” value (HBV [1]) was “relatively less amount”.
